Laboratory results published in patent US20090061022A1, “Pharmaceutical composition comprising arsenite for the treatment of malignancy” (priority 2004, published 2009).
“And” between values parts separate entries of the source, which are not always exact repeats. Equal values may be shown once. Marks after values point to notes of the source that are not given here.

Key:
ALL-SCID 4 = experiment: Anticancer activity in human leukemia model ALL-SCID 4
From the text: Anticancer activity of the sodium meta-arsenite and arsenic trioxide against two human paediatric acute lymphoblastic leukemia (ALL) models in vivo, ALL-SCID 4 was investigated to compare.
Male NOD/SCID mice (deficient in T and B lymphocytes, NK cells and functional macrophages) were transplanted s.c. on day 0 with fragments of ALL-SCID 4 cancers, which were obtained from mice used for routine passage of the cancers. Mice were randomized to the scheduled treatment groups.
Sodium meta-arsenite was administered orally at 2, 4 and 6 mg/kg/day (⅓ MTD, ⅔ MTD and MTD) once every day from day 34-54 after transplantation. The vehicle control (5% glucose in water) was administered i.p. (10 ml/kg).
Sodium meta-arsenite was dissolved in ready-to-use sterile infusion (5% (w/v) glucose in aqua injectabila). Arsenic trioxide was dissolved in 25 mM NaOH then dissolved in 5% glucose in aqua injectabila. The solutions were prepared freshly on the day of therapy for each administration.

RXF 944LX = experiment: Dose finding study in human renal cancer model RXF 944LX in nude mice (i.p. days 0, 7, 14); conditions: for BW loss % (day) / Drug-related deaths / Rating / SGD (specific growth delay) / T/C %: days 0, 7, 14
From the text: In a dose finding study, the potential anticancer activity of sodium meta-arsenite and arsenic acid sodium salt versus arsenic trioxide was examined in the human renal cancer model, RXF 944LX.
Cancer fragments (1-2 mm in diameter), obtained from xenografts in serial passage in nude mice, were implanted subcutaneously (S.C.) in a flank of male NRMI nude mice (one fragment per mouse). Mice with appropriate cancer volumes (5-7 mm in diameter) were randomly distributed to treatment and control groups (4 mice/group). The start of treatment was day 0. Cancer volume and body weights were measured at least twice per week.
1) Sodium meta-arsenite (3, 10, 30 mg/kg/day), 2) Arsenic acid sodium salt (3, 10, 30 mg/kg/day) and 3) Arsenic trioxide (3, 10, 30 mg/kg/day) were administered intraperitoneally (i.p.) once daily on days 0, 7 and 14.
Stock solution of sodium meta-arsenite and arsenic acid sodium salt (3 mg/ml) were prepared in 5% (w/v) dextrose solution, respectively, to minimize acute arsenic toxicity. For arsenic trioxide, 9 mg of arsenic trioxide was dissolved in 1M NaOH (75 μl) followed by mixing with sterile aqua injectabilia (2175 μl) and sterile 20% (w/v) dextrose in water (500 μl). Further dilution to the desired concentration was done with a 5% dextrose solution to give a final concentration of 3 mg/ml.
The cancer volume of each animal was determined by two-dimensional measurement using calipers. The volume was calculated according to the formula: (a×b^2)×0.5; wherein a and b represent two perpendicular diameters in which a (length) is the larger diameter and b (width) the smaller diameter.
Relative cancer volumes (RCV) were calculated for each individual cancer by dividing the cancer volume on day X by the cancer volume on day 0 multiplied by 100%. The cancer volume of a treatment group was expressed as the median RCV of all mice of the group. Median RCV values were used for drawing growth curves and treatment evaluation. Optimal cancer growth inhibition at a particular day within the treatment period was calculated from the median RCV values of the treated (T) versus the controlled (C) group multiplied by 100%. A T/C value<50% was considered as anti-cancer activity.

[1] = cold water; cited from earlier work
[2] = system: panel of forty-one (41) human cancer cell lines; experiment: Cytotoxic activity, panel of forty-one (41) human cancer cell lines
From the text: In a next study, the cytotoxic activity of sodium meta-arsenite was head-to-head compared with arsenic trioxide in panels loaded with 41 cancer cell lines from ten human cancers.

[3] = rats, orally; cited from earlier work
[4] = 10 mg/kg i.p., listed as arsenic trioxide
[5] = panel of 41 human cancer cell lines

O=P1(N(CCCl)CCCl)NCCCO1 (stereo not shown) [Cyclophosphamide, reference compound]
BW loss % (day) (ALL-SCID 4; 100 mg/kg i.p., day 25): +4 (34) % | Drug-related deaths (ALL-SCID 4; 100 mg/kg i.p., day 25): 0/8 | T/C % (ALL-SCID 4; 100 mg/kg i.p., day 25): 4* %

arsenic trioxide
BW loss % (day) (RXF 944LX; 3 mg/kg i.p.): +8.4 (14) % | Drug-related deaths (RXF 944LX; 3 mg/kg i.p.): 0/4 | Rating (RXF 944LX; 3 mg/kg i.p.): + (+T/C < 50) | SGD (specific growth delay) (RXF 944LX; 3 mg/kg i.p.): −0.1 | T/C % (RXF 944LX; 3 mg/kg i.p.): 31% | BW loss % (day) (RXF 944LX; 10 mg/kg i.p.): −5.0 (11) % | Drug-related deaths (RXF 944LX; 10 mg/kg i.p.): 1/4 | Rating (RXF 944LX; 10 mg/kg i.p.): + (+T/C < 50) | SGD (specific growth delay) (RXF 944LX; 10 mg/kg i.p.): −0.2 | T/C % (RXF 944LX; 10 mg/kg i.p.): 41% | BW loss % (day) (RXF 944LX; [4]): 5% | Drug-related deaths (RXF 944LX; [4]): one (1) out of four (4) mice died | Drug-related deaths (RXF 944LX; 30 mg/kg i.p.): 4/4 | Drug-related deaths (RXF 944LX; 30 mg/kg i.p., listed as arsenic trioxide): died within a few days after the first injection | Maximum Tolerated Dose (MTD) (RXF 944LX; i.p. once daily on days 0, 7 and 14, RXF 944LX bearing nude mice): 10 mg/kg/day | Solubility [1]: sparingly and extremely slowly soluble | activity in panel of 41 ([2]; 0.1 μg/ml, 0.01 μg/ml and 0.001 μg/ml): no observed activity | cancer cell lines that responded, percent of 41 ([2]; 1 μg/ml, more than 70% growth inhibition): 2% | cancer cell lines in which active, percent of 41 ([2]; 10 μg/ml): 56% | selectivity (individual IC70<½ mean IC70), fraction of cell lines ([2]; breast (mammary) cancer cell lines): ¼ | selectivity (individual IC70<½ mean IC70), fraction of cell lines ([2]; leukemia cell lines): ¾ | selectivity (individual IC70<½ mean IC70), fraction of cell lines ([2]; melanoma cell lines): 2/7 | fold less potent compared to sodium meta-arsenite, IC50 ([2]; on the basis of μM): 17 fold | fold less potent compared to sodium meta-arsenite, IC70 ([2]; on the basis of μM): 12 fold | fold less potent compared to sodium meta-arsenite, IC50 ([2]; on μg/ml): 27 fold | fold less potent compared to sodium meta-arsenite, IC70 ([2]; on μg/ml): 18 fold | Mean IC50 [2, 5]: 3.462 µg/mL | Mean IC70 [2, 5]: 6.022 μg/ml and 30.44 μM | Mean IC90 [2, 5]: 10.307 µg/mL | Mean IC70 ([2]; panel of 41 human cancer cell lines, listed as arsenic trioxide): 6.022 μg/ml and 30.44 μM | IC50 ([2]; read-out: Mean IC50, panel of 41 human cancer cell lines): 17.5 µM | IC90 ([2]; read-out: Mean IC90, panel of 41 human cancer cell lines): 52.1 µM | BW loss % (day) (ALL-SCID 4; 2 mg/kg i.p., days 25-35): +9 (34) % | Drug-related deaths (ALL-SCID 4; 2 mg/kg i.p., days 25-35): 0/8 | T/C % (ALL-SCID 4; 2 mg/kg i.p., days 25-35): 71% | BW loss % (day) (ALL-SCID 4; 4 mg/kg i.p., days 25-35): +10 (34) % | Drug-related deaths (ALL-SCID 4; 4 mg/kg i.p., days 25-35): 0/8 | T/C % (ALL-SCID 4; 4 mg/kg i.p., days 25-35): 97% | BW loss % (day) (ALL-SCID 4; 6 mg/kg i.p., days 25-35): +10 (34) % | Drug-related deaths (ALL-SCID 4; 6 mg/kg i.p., days 25-35): 0/8 | T/C % (ALL-SCID 4; 6 mg/kg i.p., days 25-35): 58% | MTD (ALL-SCID 4; small dose finding studies prior to the ALL-SCID 4 study): 6 mg/kg/day | LD50 [3]: 15.1 mg/kg
